Laboratory results reported in BigSolDB 2.1.

Details: 298.2 K

O=C(O)c1cccc([N+](=O)[O-])c1
solubility (mole fraction) (in 1,4-dioxane): 0.193
solubility (mole fraction) (in 2-methyl-1-butanol): 0.11
solubility (mole fraction) (in 2-methyl-1-pentanol): 0.134
solubility (mole fraction) (in 2-pentanol): 0.176
solubility (mole fraction) (in THF): 0.36
solubility (mole fraction) (in dibutyl ether): 0.0346
solubility (mole fraction) (in diethyl ether): 0.127
solubility (mole fraction) (in diisopropyl ether): 0.0591
solubility (mole fraction) (in ethanol): 0.175
solubility (mole fraction) (in ethyl acetate): 0.138
solubility (mole fraction) (in isobutanol): 0.113
solubility (mole fraction) (in isopentanol): 0.145
solubility (mole fraction) (in isopropanol): 0.17
solubility (mole fraction) (in methanol): 0.211
solubility (mole fraction) (in methyl acetate): 0.147
solubility (mole fraction) (in n-butanol): 0.146
solubility (mole fraction) (in n-butyl acetate): 0.108
solubility (mole fraction) (in n-decanol): 0.139
solubility (mole fraction) (in n-heptanol): 0.136
solubility (mole fraction) (in n-hexanol): 0.139
solubility (mole fraction) (in n-octanol): 0.144
solubility (mole fraction) (in n-pentanol): 0.143
solubility (mole fraction) (in n-propanol): 0.149
solubility (mole fraction) (in propylene carbonate): 0.0834
solubility (mole fraction) (in sec-butanol): 0.188
solubility (mole fraction) (in tert-butanol): 0.217
